Assay results as given in patent publication US8492348B2, “Methods of increasing cerebral blood flow” (The Board of Trustees of the Leland Stanford Junior …, priority 2005, dated 2013).

Experiments:
[1] = system: rats subjected to ischemic/reperfusion injury by middle cerebral artery (MCA) occlusion; assay: Transmission electron microscopy of brain tissue, ischemic penumbra, after MCA occlusion (Example 3); type: in vivo, Sprague-Dawley rats; conditions: for number of vessels per field (patent microvessels): 120 min MCA occlusion, 4 hrs reperfusion, 0.2 mg/kg bolus intraperitoneal at onset of reperfusion, 1200x fields, n=4, FIG. 5
Experimental: Sprague-Dawley rats underwent 120 minutes MCA occlusion, followed by 4 hrs of reperfusion. Rats were treated with either TAT or δV1-1-TAT peptides at the onset of reperfusion by bolus intraperitoneal injection (0.2 mg/kg in 1 mL, n=4 per group). […] Following the reperfusion period, rats were heavily anesthetized using isoflurane, and underwent transcardial perfusion using 0.7% NaCl/PBS followed by 4% formaldehyde in 0.7% NaCl/PBS.
Brains were removed and kept at 4° C. overnight in 2% formaldehyde/2% glutaraldehyde in 0.1M sodium cacodylate buffer, pH 7.3, Brain sections (˜1 mm^3) were then dissected from the cortical surface, at ˜1 mm anterior/˜6 mm lateral to bregma on the ipsilateral cortex (corresponding to the area measured by laser Doppler flowmetry). Tissue was post-fixed in 1% osmium tetroxide for 1 hr, washed with water, and stained in 1% uranyl acetate solution. Tissue was dehydrated using an ethanol gradient followed by 100% propylene oxide, and infiltrated with Epon and Embed 812 medium, placed in molds, and polymerized overnight at 65° C. before slicing. Sections (75 and 90 nm) were picked up on formvar/Carbon coated Cu grids, stained for 15 seconds in 1:1 Super-saturated uranyl acetate (7.7%) in acetone followed by staining in 0.2% lead citrate for 3 to 4 minutes (all reagents from Electron Microscopy Sciences, PA).
To quantitate number of patent vessels, 10-15 non-overlapping fields (1200× magnification) were photographed from 2-3 slices taken from each animal. Vessels were identified and counted if lumen and endothelial lining was apparent; vessels were confirmed by scanning over these fields at higher magnification. Assessments of vessel count were performed by an observer blinded to treatment group. The number of vessels per field was then averaged for each group of animals (n=4 per group). Statistical differences between groups were analyzed using an unpaired t-test. Higher magnification images (5000-15000×) were taken to assess microvascular morphology.

[2] = system: rats subjected to ischemic/reperfusion injury by middle cerebral artery (MCA) occlusion; assay: Cerebral blood flow by laser Doppler flowmetry after single intraperitoneal bolus (Example 1); type: in vivo, Sprague-Dawley rats; conditions: bolus intraperitoneal delivery
Text: Male Sprague-Dawley rats (280-320g; n=8) were used for cerebral ischemia and reperfusion, and subsequent monitoring of cerebral blood flow. Tat or δV1-1 peptides were synthesized and conjugated via a Cys S—S bond as described previously (Chen, et al., Proc. Natl. Acad. Sci. USA 25(20):11114-11119 (2001); Inagaki, et al., Circulation 11(108):2304-2307 (2003)). Rats were sacrificed by overdose of isoflurane immediately following procedure
(§1) Ischemia and reperfusion were induced in male Sprague-Dawley rats using an occluding intraluminal suture as described in Maier, et al., J. Neurosurg. 94(1):90-96 (2001). Briefly, an uncoated 30 mm long segment of 3-0 nylon monofilament suture with the tip rounded by a flame was inserted into the stump of the external carotid artery and advanced into the internal carotid artery 19-20 mm from the bifurcation to occlude the ostium of the middle cerebral artery (MCA). Following placement of the suture, the wound was closed and animals were placed back in cages for a period of two hours. Following this period, animals were reanestheized and the suture was withdrawn to allow reperfusion of the brain.
Immediately following reperfusion, the rats were placed in a stereotaxic frame, and a burr hole was drilled through the skull 1 mm posterior and 6 mm lateral to the bregma on the ipsilateral hemisphere corresponding to the ischemic territory. Cerebral blood flow (CBF) was measured via this burr hole using a laser Doppler probe controlled by a micromanipulator (Laserflo BPM403A laser-Doppler flowmeter, Vasamedic, St. Paul, Minn.). The display is digital only, collects eight data points per second, and was set to give a moving average of data every 0.1 sec. (Perez-Pinzon, et al., J. Neurolog. Sci. 153 (1):25-31 (1997); Borlongan, et al., Brain Res. 1010(1-2):108-116 (2004)). CBF readings began at 30 minutes from the onset of reperfusion. Following a period of 20-30 minutes to establish baseline CBF, a δPKC inhibitor, the δV1-1 peptide (which was conjugated to Tat for delivery), was injected by intraperitoneal bolus, and blood flow was monitored for an additional 20-30 minutes.

[3] = system: rats subjected to ischemic/reperfusion injury; assay: Cerebral blood flow after repeated intraperitoneal administrations (Example 2); type: in vivo
Text: as §1
Immediately following reperfusion, the rats were placed in a stereotaxic frame, and a burr hole was drilled through the skull 1 mm posterior and 6 mm lateral to the bregma on the ipsilateral hemisphere corresponding to the ischemic territory. Cerebral blood flow (CBF) was measured via this burr hole using a laser Doppler probe controlled by a micromanipulator (Laserflo BPM403A laser-Doppler flowmeter, Vasamedic, St. Paul, Minn.). The display is digital only, collects eight data points per second, and was set to give a moving average of data every 0.1 sec. […] CBF readings began at 30 minutes from the onset of reperfusion. […]

[4] = rats subjected to ischemic/reperfusion injury (2 h MCA occlusion), within 30 minutes, FIG. 2
[5] = sham (non-stroked) rats, within 30 minutes of delivery, FIG. 1

Row | Sequence | number of vessels per field (patent microvessels) [1] [vessels/field] | microvascular structure (higher magnification TEM) ([1]; ischemic animals, 0.2 mg/kg at reperfusion only, FIGS. 4F, 4I, 4L) | cerebral blood flow (CBF) [2, 4] | cerebral blood flow (CBF) [2, 5] | desensitization to the inhibitor ([3]; ischemic/reperfusion rats treated multiple times) | cerebral blood flow (CBF) ([3]; ischemic/reperfusion rats, repeated intraperitoneal administrations, FIG. 3)
1 | SFNSYELGSL [δV1-1-TAT] | 3.1±0.6 | significantly less damaged | increased cerebral blood flow | no change in blood flow | did not become desensitized | further increased blood flow
2 | YGRKKRRQRRR [TAT, reference compound] | 1.6±0.6 |  | no effect on CBF | no effect on CBF |  | 
